One assay has as its system murine myocytes (C2C12). Briefly: β-oxidation of fatty acids in murine myocytes (tritiated palmitate). In kind it is cell-based. The note with it: 24 h pretreatment. An excerpt: The more the induction of the β-oxidation of fatty acids is increased, the greater the stimulating action of the compound according to the invention on metabolism in the muscle cells.
The objective is to measure the amount of tritiated water formed during the mitochondrial oxidation of ^3H-labeled fatty acids.
The C2C12 murine cell line (obtained from ECACC) is cultivated in DMEM medium (Gibco; 41965-039) with addition of 1% L-glutamine (Gibco; 25030), 1% penicillin/streptomycin (VWR; BWSTL0022/100) and 10% decomplemented fetal calf serum (FCS. Gibco; 10270-106).
The cells are seeded on 48-well plates at a density of 25·10^3 cells/well. At confluence, the medium is replaced with a differentiating medium (basal medium with addition of 2% of horse serum (Gibco; 26050-088)), then incubated at 37° C. and 5% CO2 for 4 days in order to differentiate them to myocytes.
After 4 days of differentiation, the cells are treated with the compounds according to the invention added to the culture medium for differentiation. Compound 2 was tested by dose effect from 0.01 to 1 μM, and the others were tested at a dose of 1 μM. The compounds according to the invention are dissolved in dimethylsulfoxide (DMSO, Sigma; D5879). The cells are treated for 24 h at 37° C., 5% CO2. The effect of the compounds according to the invention is compared with the effect of DMSO alone. […]
Secondly, 50 μL of precipitated supernatant is evaporated for 2 days, then the residual tritium is measured in order to evaluate the amount of tritiated palmitate not converted to water.
A standard range is prepared by successive dilutions of the tritiated palmitate/BSA complex in order to determine the amount of palmitate converted to water. For each time of the kinetics, 1 h, 2 h and 3 h, the amount in nanomoles of oxidized palmitate is calculated by linear regression. The areas under the curve are determined for each set of conditions and the results are normalized with DMSO. […]

The subject of assay [1] is ABCA1 gene in human macrophages (THP-1). The assay is described as follows: Reverse cholesterol transport: expression of the ABCA1 gene in human macrophages. As to conditions: 24 h. The assay is classed as cell-based. Here is the method: The effect of the compounds according to the invention on reverse cholesterol transport was evaluated by measuring the expression of the ABCA1 gene (ATP-binding cassette, sub-family A, member 1; membrane transporter involved in the efflux of cholesterol) in human macrophages. The more the expression of ABCA1 is increased, the greater the stimulating action of the compound according to the invention on reverse cholesterol transport.
The THP1 human monocyte line (obtained from ATCC) is cultivated in RPMI1640 medium with addition of 25 mM Hepes (Gibco; 42401-018), 1% glutamine (Gibco; 25030-24), 1% penicillin/streptomycin (Biochrom AG; A 2213) and 10% decomplemented fetal calf serum (FCS. Gibco; 26050-088).
The cells are seeded on 24-well plates (Primaria BD Falcon) at a density of 3·10^5 cells/well and incubated at 37° C. and 5% CO2 for 72 h in the presence of 30 ng/ml of phorbol 12-myristate 13-acetate (PMA) in order to differentiate them to macrophages. […]
1 μg of total RNA (quantified based on the spectrophotometer reading) was then reverse-transcribed to complementary DNA by reaction for 1 hour at 37° C. in a total volume of 30 μl containing buffer 1× (Invitrogen), 1.5 mM of DTT, 0.18 mM of dNTPs (Promega), 200 ng of pdN6 (Amersham), 30 U of RNase inhibitor (Promega) and 1 μl of MMLV-RT (Invitrogen).
The quantitative PCR experiments were carried out using the MyiQ Single-Color Real-Time PCR Detection System (Biorad, Marnes-la-Coquette, France) and were performed using the iQ SYBR Green Supermix kit following the supplier's recommendations, in 96-well plates, on 5 μl of diluted reverse transcription reaction mixtures with a hybridization temperature of 60° C. […]
The amount of fluorescence emitted is directly proportional to the amount of complementary DNA present at the start of the reaction and amplified during PCR. […] The relative expression levels of each target are thus determined using the efficacy curves obtained with the points in the range. […]

In the case of `CC(C)(Oc1ccc(CCC(=O)c2ccc(-c3ccc(C(F)(F)F)cc3)s2)c(Cl)c1Cl)C(=O)O` [Compound 2, 2-(2,3-dichloro-4-(3-oxo-3-(5-(4-(trifluoromethyl)phenyl)thien-2-yl)propyl)phenoxy)-2-methylpropanoic acid], in the assay with murine myocytes (C2C12) (in dose effect starting from 0.01 μM), the “β-oxidation of fatty acids in murine myocytes” value (“β-oxidation of fatty acids” for short) was “significant increase”. In addition, in assay [1] (at 1 μm), the “expression of the gene coding for ABCA1 in human macrophages” value (“expression of the gene coding for ABCA1” for short) was “significant increase”.
For `CC(C)(Oc1ccc(CCC(O)c2ccc(-c3ccc(C(F)(F)F)cc3)s2)c(Cl)c1Cl)C(=O)O` (stereo not drawn) [Compound 4, 2-(2,3-dichloro-4-(3-hydroxy-3-(5-(4-(trifluoromethyl)phenyl)thien-2-yl)propyl)phenoxy)-2-methylpropanoic acid], the “β-oxidation of fatty acids” value with murine myocytes (C2C12) (at 1 μm) is “significant increase”. Besides, the “expression of the gene coding for ABCA1” value in assay [1] (at 1 μm) is listed as “significant increase”.
Consider `CC(C)(Oc1ccc(CCC(OCc2ccccc2)c2ccc(-c3ccc(C(F)(F)F)cc3)s2)c(Cl)c1Cl)C(=O)O` (stereo not drawn) [Compound 7, 2-(4-(3-(benzyloxy)-3-(5-(4-(trifluoromethyl)phenyl)thien-2-yl)propyl)-2,3-dichlorophenoxy)-2-methylpropanoic acid], for which, in assay [1] (at 300 nM), the “expression of the gene coding for ABCA1” value is listed as “significant increase”.
For the molecule `CC(C)(Oc1ccc(CCC(=O)c2cc(-c3ccc(C(F)(F)F)cc3)cs2)c(Cl)c1Cl)C(=O)O` [Compound 11, 2-(2,3-dichloro-4-(3-oxo-3-(4-(4-(trifluoromethyl)phenyl)thien-2-yl)propyl)phenoxy)-2-methylpropanoic acid], the “β-oxidation of fatty acids” value in the assay on murine myocytes (C2C12) (at 1 μm) is “significant increase”.

(Values after patent publication US8088819B2, “Derivatives of substituted 3-phenyl-1-(phenylthienyl)propan-1-ones and of 3-phenyl-1-(phenylfuranyl) propan-1-ones, preparation and use” (priority 2006, dated 2012).)
